Measured values as given in patent US20240174647A1 (NEURON23, INC., priority 2022, published 2024).

The molecules below were run against wt human LRRK2, catalytic site (Homo sapiens (Human), UniProt Q5S007) (assay: TR-FRET LanthaScreen Tb Kinase Activity Assay (LRRK2 kinase inhibition)). Settings: 2 nM wt human LRRK2, 400 nM fluorescein-ERM (LRRKtide) peptide, 38 μM ATP, 120 minutes at room temperature.
Format: biochemical
Procedure: The compounds in Table 1 were tested for their inhibitory effect on LRRK2 kinase according to the following procedures.
The protocol for basic TR-FRET LanthaScreen Tb Kinase Activity Assay inhibitor studies were as follows. LanthaScreen Kinase Activity Assays (ThermoFisher/USA) to evaluate inhibitors were performed by addition of 100 nL of test compound in corresponding DMSO dilutions/5 μL of kinase/fluorescein-ERM(LRRKtide) peptide mixture, 5 μL of ATP into 384 well small volume plates. After incubation for 120 minutes at room temperature, the detection reagents containing Tb-anti-pLRRKtide antibody were added to monitor phosphrylation level of peptide. Then, after 60 min minutes incubation at room temperature plates were read in Envision. Data analysis of emission ratios was according to LanthaScreen Tb Kinase Activity Assay protocol.
Kinase and assay components were adjusted to final concentrations according to the kit protocol. For LRRK2: 2 nM wt human LRRK2, catalytic site, catalytic site (ThermoFisher/USA), 400 nM peptide, 38 μM ATP in 1× Kinase Buffer A.
Basic protocol for TR-FRET LanthaScreen Tb Kinase Activity Assay inhibitor studies involved two steps: • Enzymatic step: Addition of 100 nL of test compound in corresponding DMSO dilutions, 5 μL of kinase/substrate mixture, 5 μL of ATP into 384 well small volume plates. Incubation for 120 minutes at room temperature. • Detection step: Addition of 10 μL EDTA & antibody, read plate after 60 minutes. Data analysis of emission ratios according to KinEASE assay protocol.
Kinase and assay components were adjusted to final concentrations according to the kit protocol.
In the table below, activity is provided as follows: +++=IC50 less than 50 nM; ++=IC50 between 50 nM and 200 nM; +=IC50>=200 nM

Sequence of wt human LRRK2, catalytic site (Q5S007 1879-2138): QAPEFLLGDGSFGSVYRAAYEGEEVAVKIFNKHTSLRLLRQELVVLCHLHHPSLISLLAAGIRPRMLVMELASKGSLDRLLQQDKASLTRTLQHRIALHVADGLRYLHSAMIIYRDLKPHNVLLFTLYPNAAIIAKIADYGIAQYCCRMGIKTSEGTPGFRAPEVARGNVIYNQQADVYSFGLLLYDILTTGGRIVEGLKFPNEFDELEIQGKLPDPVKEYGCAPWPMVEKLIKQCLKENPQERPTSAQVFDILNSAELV

Row | SMILES | IC50 [nM]
1 | CCNc1nc(Nc2cccc3c2cnn3C)ncc1C(F)(F)F [Example 69, N4-ethyl-N2-(1-methyl-1H-indazol-4-yl)-5-(trifluoromethyl)pyrimidine-2,4-diamine] | < 50
2 | CCNc1nc(Nc2cccc3c2cnn3C)ncc1Cl [Example 70, 5-chloro-N4-ethyl-N2-(1-methyl-1H-indazol-4-yl)pyrimidine-2,4-diamine] | < 50
3 | Cn1ncc2c(Nc3ncc(Cl)c(NC4CC4)n3)cccc21 [Example 71, 5-chloro-N4-cyclopropyl-N2-(1-methyl-1H-indazol-4-yl)pyrimidine-2,4-diamine] | < 50
4 | CNc1nc(Nc2ccc3[nH]ncc3c2)ncc1C(F)(F)F [Example 72, N2-(1H-indazol-5-yl)-N4-methyl-5-(trifluoromethyl)pyrimidine-2,4-diamine] | < 50
5 | CNc1nc(Nc2ccc3c(cnn3C)c2)ncc1C(F)(F)F [Example 73, N4-methyl-N2-(1-methyl-1H-indazol-5-yl)-5-(trifluoromethyl)pyrimidine-2,4-diamine] | < 50
6 | CNc1nc(Nc2ccc3nn(C)cc3c2)ncc1C(F)(F)F [Example 74, N4-methyl-N2-(2-methyl-2H-indazol-5-yl)-5-(trifluoromethyl)pyrimidine-2,4-diamine] | < 50
7 | CNc1nc(Nc2cccc3cn[nH]c23)ncc1C(F)(F)F [Example 75, N2-(1H-indazol-7-yl)-N4-methyl-5-(trifluoromethyl)pyrimidine-2,4-diamine] | 50 to 200
8 | CNc1nc(Nc2cccc3cnn(C)c23)ncc1C(F)(F)F [Example 76, N4-methyl-N2-(1-methyl-1-indazol-7-yl)-5-(trifluoromethyl)pyrimidine-2,4-diamine] | ≥ 200
9 | CNc1nc(Nc2cccc3c2cnn3CCC(=O)N2CCOCC2)ncc1C(F)(F)F [Example 77, 3-(4-((4-(methylamino)-5-(trifluoromethyl)pyrimidin-2-yl)amino)-1H-indazol-1-yl)-1-morpholinopropan-1-one] | < 50
10 | O=S(=O)(C1CC1)n1ncc2c(Nc3ncc(C(F)(F)F)c(NC4CC4)n3)cccc21 [Example 78, N4-cyclopropyl-N2-(1-(cyclopropylsulfonyl)-1H-indazol-4-yl)-5-(trifluoromethyl)pyrimidine-2,4-diamine] | < 50
11 | CNc1nc(Nc2cccc3c2cnn3C)ncc1Cl [Example 79, 5-chloro-N4-methyl-N2-(1-methyl-1H-indazol-4-yl)pyrimidine-2,4-diamine] | < 50
12 | CNc1nc(Nc2ccc(C(F)(F)F)c3c2cnn3CC#N)ncc1C(F)(F)F [Example 80, 2-(4-((4-(methylamino)-5-(trifluoromethyl)pyrimidin-2-yl)amino)-7-(trifluoromethyl)-1H-indazol-1-yl)acetonitrile] | < 50
13 | CNc1nc(Nc2ccc(C3=CCN(C)CC3)c3c2cnn3C)ncc1C(F)(F)F [Example 81, N4-methyl-N2-(1-methyl-7-(1-methyl-1,2,3,6-tetrahydropyridin-4-yl)-1H-indazol-4-yl)-5-(trifluoromethyl)pyrimidine-2,4-diamine] | < 50
14 | CNc1nc(Nc2ccc(C3CCN(C)CC3)c3c2cnn3C)ncc1C(F)(F)F [Example 82, N4-methyl-N2-(1-methyl-7-(1-methylpiperidin-4-yl)-1H-indazol-4-yl)-5-(trifluoromethyl)pyrimidine-2,4-diamine] | < 50
15 | CNc1nc(Nc2ccc(C3=CCOCC3)c3c2cnn3CC#N)ncc1C(F)(F)F [Example 83, 2-(7-(3,6-dihydro-2H-pyran-4-yl)-4-((4-(methylamino)-5-(trifluoromethyl)pyrimidin-2-yl)amino)-1H-indazol-1-yl)acetonitrile] | < 50
16 | CNc1nc(Nc2ccc(OC(F)(F)F)c3c2cnn3CC#N)ncc1C(F)(F)F [Example 84, 2-(4-((4-(methylamino)-5-(trifluoromethyl)pyrimidin-2-yl)amino)-7-(trifluoromethoxy)-1H-indazol-1-yl)acetonitrile] | < 50
17 | CNc1nc(Nc2ccc(F)c3c2cnn3CC#N)ncc1C(F)(F)F [Example 85, 2-(7-fluoro-4-((4-(methylamino)-5-(trifluoromethyl)pyrimidin-2-yl)amino)-1H-indazol-1-yl)acetonitrile] | < 50
18 | CNc1nc(Nc2ccc(C3=CCOCC3)c3c2cnn3C)ncc1C(F)(F)F [Example 86, N2-(7-(3,6-dihydro-2H-pyran-4-yl)-1-methyl-11H-indazol-4-yl)-N4-methyl-5-(trifluoromethyl)pyrimidine-2,4-diamine] | < 50

Row | SMILES | IC50 [nM]
19 | CNc1nc(Nc2ccc(C3=CCN(C)CC3)c3c2cnn3CC#N)ncc1C(F)(F)F [Example 87, 2-(7-(1-methyl-1,2,3,6-tetrahydropyridin-4-yl)-4-((4-(methylamino)-5-(trifluoromethyl)pyrimidin-2-yl)amino)-11H-indazol-1-yl)acetonitrile] | < 50
20 | CNc1nc(Nc2ccc(C3CCOCC3)c3c2cnn3C)ncc1C(F)(F)F [Example 88, N4-methyl-N2-(1-methyl-7-(tetrahydro-2H-pyran-4-yl)-1H-indazol-4-yl)-5-(trifluoromethyl)pyrimidine-2,4-diamine] | < 50
21 | CNc1nc(Nc2ccc(C3CCOCC3)c3c2cnn3CC#N)ncc1C(F)(F)F [Example 89, 2-(4-((4-(methylamino)-5-(trifluoromethyl)pyrimidin-2-yl)amino)-7-(tetrahydro-2H-pyran-4-yl)-1H-indazol-1-yl)acetonitrile] | < 50
22 | CNc1nc(Nc2cc(C(F)(F)F)cc3c2cnn3CC#N)ncc1C(F)(F)F [Example 90, 2-(4-((4-(methylamino)-5-(trifluoromethyl)pyrimidin-2-yl)amino)-6-(trifluoromethyl)-1H-indazol-1-yl)acetonitrile] | < 50
23 | CNc1nc(Nc2cc(F)cc3c2cnn3CC#N)ncc1C(F)(F)F [Example 91, 2-(6-fluoro-4-((4-(methylamino)-5-(trifluoromethyl)pyrimidin-2-yl)amino)-1H-indazol-1-yl)acetonitrile] | < 50
24 | CNc1nc(Nc2cc(Cl)cc3c2cnn3CC#N)ncc1C(F)(F)F [Example 92, 2-(6-chloro-4-((4-(methylamino)-5-(trifluoromethyl)pyrimidin-2-yl)amino)-1H-indazol-1-yl)acetonitrile] | < 50
25 | N#CCn1ncc2c(Nc3ncc(C(F)(F)F)c(NC4CC4)n3)cccc21 [Example 93] | < 50
26 | CNc1nc(Nc2cccc3c2cnn3CC(F)F)ncc1C(F)(F)F [Example 94, N2-(1-(2,2-difluoroethyl)-1H-indazol-4-yl)-N4-methyl-5-(trifluoromethyl)pyrimidine-2,4-diamine] | < 50
27 | N#CCn1ncc2c(Nc3ncc(C(F)(F)F)c(NC4CCCC4)n3)cccc21 [Example 95, 2-(4-((4-(cyclopentylamino)-5-(trifluoromethyl)pyrimidin-2-yl)amino)-1H-indazol-1-yl)acetonitrile] | < 50
28 | N#CCn1ncc2c(Nc3ncc(C(F)(F)F)c(NC4CC(F)(F)C4)n3)cccc21 [Example 96, 2-(4-((4-((3,3-difluorocyclobutyl)amino)-5-(trifluoromethyl)pyrimidin-2-yl)amino)-1H-indazol-1-yl)acetonitrile] | < 50
29 | CNc1nc(Nc2cccc3c2cnn3CC(C)(C)O)ncc1C(F)(F)F [Example 97, 2-methyl-1-(4-((4-(methylamino)-5-(trifluoromethyl)pyrimidin-2-yl)amino)-1H-indazol-1-yl)propan-2-ol] | < 50
30 | CCn1ncc2c(Nc3ncc(C(F)(F)F)c(NC)n3)cccc21 [Example 98, N2-(1-ethyl-1H-indazol-4-yl)-N4-methyl-5-(trifluoromethyl)pyrimidine-2,4 diamine] | < 50
31 | CCn1ncc2c(Nc3ncc(C(F)(F)F)c(NC4CC4)n3)cccc21 [Example 99, N4-cyclopropyl-N2-(1-ethyl-1H-indazol-4-yl)-5-(trifluoromethyl)pyrimidine-2,4-diamine] | < 50
32 | CNc1nc(Nc2ccc(C3=CCN(C)CC3)c3c2cnn3CC(N)=O)ncc1C(F)(F)F [Example 100, 2-(7-(1-methyl-1,2,3,6-tetrahydropyridin-4-yl)-4-((4-(methylamino)-5-(trifluoromethyl)pyrimidin-2-yl)amino)-1H-indazol-1-yl)acetamide] | < 50
33 | CNc1nc(Nc2cccc3c2cnn3S(C)(=O)=O)ncc1C(F)(F)F [Example 101] | < 50
34 | CS(=O)(=O)n1ncc2c(Nc3ncc(C(F)(F)F)c(NC4CC4)n3)cccc21 [Example 102, N4-cyclopropyl-N2-(1-(methylsulfonyl)-1H-indazol-4-yl)-5-(trifluoromethyl)pyrimidine-2,4-diamine] | < 50
35 | CC(C)(C#N)n1ncc2c(Nc3ncc(C(F)(F)F)c(NC4CC4)n3)cccc21 [Example 103, 2-(4-((4-(cyclopropylamino)-5-(trifluoromethyl)pyrimidin-2-yl)amino)-1H-indazol-1-yl)-2-methylpropanenitrile] | < 50
